Patent publication US10005767B2, “Compositions and methods for inhibition of the JAK pathway” (Rigel Pharmaceuticals, Inc., priority 2009, dated 2018)

System: human primary T-cells, IL-2 stimulated proliferation (JAK-1 and JAK-3 dependent; reported as JAK3 activity)
Assay: Human primary T-cell proliferation stimulated by IL-2 (Example 3)
Assay type: cell-based
Settings: Homo sapiens, T-cell, tested under conditions described in Example 3 (IL-2 stimulated human primary T-cell proliferation); read-out: ability to inhibit JAK3 activity, IC50 range (Table V)
In short: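 Peripheral-blood human T-cells pre-activated via TCR/CD28, IL-2-starved overnight, then cultured 72 h at 37 °C with compound in Yssel's medium containing IL-2 (80 U/mL in cell suspension). Proliferation read as viable-cell ATP by CellTiter-Glo luminescence; reduction versus control taken as JAK pathway inhibition.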

Compound	IC50
Cc1cnc(Nc2cc(Cl)c(F)c(C(F)(F)F)c2)nc1Nc1ccc2oc(=O)[nH]c2c1 [Compound I-230, 5-(2-(3-chloro-4-fluoro-5-(trifluoromethyl)phenylamino)-5-methylpyrimidin-4-ylamino)benzo[d]oxazol-2(3H)-one]	0.5 to 5 µM
COc1cc(Nc2ncc(C)c(Nc3ccc4oc(=O)[nH]c4c3)n2)cc(C(C)NC(C)C)c1 (stereo not drawn) [Compound I-231, 5-(2-(3-(1-(isopropylamino)ethyl)-5-methoxyphenylamino)-5-methylpyrimidin-4-ylamino)benzo[d]oxazol-2(3H)-one]	< 0.5 µM
CCCNC(C)c1cc(Nc2ncc(C)c(Nc3ccc4oc(=O)[nH]c4c3)n2)cc(OC)c1 (stereo not drawn) [Compound I-232, 5-(2-(3-methoxy-5-(1-(propylamino)ethyl)phenylamino)-5-methylpyrimidin-4-ylamino)benzo[d]oxazol-2(3H)-one]	< 0.5 µM
COc1cc(Nc2ncc(C)c(Nc3ccc4oc(=O)[nH]c4c3)n2)cc(C(C)NC2CC2)c1 (stereo not drawn) [Compound I-233, 5-(2-(3-(1-(cyclopropylamino)ethyl)-5-methoxyphenylamino)-5-methylpyrimidin-4-ylamino)benzo[d]oxazol-2(3H)-one]	< 0.5 µM
COc1cc(Nc2ncc(C)c(Nc3ccc4oc(=O)[nH]c4c3)n2)cc(C(C)N2CCCC2)c1 (stereo not drawn) [Compound I-234, 5-(2-(3-methoxy-5-(1-(pyrrolidin-1-yl)ethyl)phenylamino)-5-methylpyrimidin-4-ylamino)benzo[d]oxazol-2(3H)-one]	< 0.5 µM
COc1cc(Nc2ncc(C)c(Nc3ccc4oc(=O)[nH]c4c3)n2)cc(C(C)N2CCC2)c1 (stereo not drawn) [Compound I-235, 5-(2-(3-(1-(azetidin-1-yl)ethyl)-5-methoxyphenylamino)-5-methylpyrimidin-4-ylamino)benzo[d]oxazol-2(3H)-one]	< 0.5 µM
CNC(C)c1cc(Nc2ncc(C)c(Nc3ccc4oc(=O)[nH]c4c3)n2)cc(OC)c1 (stereo not drawn) [Compound I-236, 5-(2-(3-methoxy-5-(1-(methylamino)ethyl)phenylamino)-5-methylpyrimidin-4-ylamino)benzo[d]oxazol-2(3H)-one]	< 0.5 µM
Cc1cc(Nc2ncc(C)c(Nc3ccc4oc(=O)[nH]c4c3)n2)cc(C(F)F)c1 [Compound I-237, 5-(2-(3-(difluoromethyl)-5-methylphenylamino)-5-methylpyrimidin-4-ylamino)benzo[d]oxazol-2(3H)-one]	< 0.5 µM
Cc1cc(CF)cc(Nc2ncc(C)c(Nc3ccc4oc(=O)[nH]c4c3)n2)c1 [Compound I-238, 5-(2-(3-(fluoromethyl)-5-methylphenylamino)-5-methylpyrimidin-4-ylamino)benzo[d]oxazol-2(3H)-one]	< 0.5 µM
Cc1ccc(Nc2ncc(C)c(Nc3ccc4oc(=O)[nH]c4c3)n2)cc1S(C)(=O)=O [Compound I-239, 5-(5-methyl-2-(4-methyl-3-(methylsulfonyl)phenylamino)pyrimidin-4-ylamino)benzo[d]oxazol-2(3H)-one]	< 0.5 µM
Cc1cnc(Nc2cc(F)cc(N3CCOCC3)c2)nc1Nc1ccc2oc(=O)[nH]c2c1 [Compound I-240, 5-(2-(3-fluoro-5-morpholinophenylamino)-5-methylpyrimidin-4-ylamino)benzo[d]oxazol-2(3H)-one]	< 0.5 µM
Cc1cnc(Nc2cc(F)cc(N3CCN(C)CC3)c2)nc1Nc1ccc2oc(=O)[nH]c2c1 [Compound I-241, 5-(2-(3-fluoro-5-(4-methylpiperazin-1-yl)phenylamino)-5-methylpyrimidin-4-ylamino)benzo[d]oxazol-2(3H)-one]	< 0.5 µM
Cc1cnc(Nc2ccc(F)c(S(C)(=O)=O)c2)nc1Nc1ccc2oc(=O)[nH]c2c1 [Compound I-242, 5-(2-(4-fluoro-3-(methylsulfonyl)phenylamino)-5-methylpyrimidin-4-ylamino)benzo[d]oxazol-2(3H)-one]	< 0.5 µM
Cc1cnc(Nc2cccc(S(N)(=O)=O)c2)nc1Nc1cc(C)c2oc(=O)[nH]c2c1 [Compound I-243, 3-(5-methyl-4-(7-methyl-2-oxo-2,3-dihydrobenzo[d]oxazol-5-ylamino)pyrimidin-2-ylamino)benzenesulfonamide]	< 0.5 µM
Cc1cnc(Nc2cccc(S(C)(=O)=O)c2)nc1Nc1cc(C)c2oc(=O)[nH]c2c1 [Compound I-244, 7-methyl-5-(5-methyl-2-(3-(methylsulfonyl)phenylamino)pyrimidin-4-ylamino)benzo[d]oxazol-2(3H)-one]	< 0.5 µM
Cc1cnc(Nc2ccc(F)c(S(C)(=O)=O)c2)nc1Nc1cc(C)c2oc(=O)[nH]c2c1 [Compound I-245, 5-(2-(4-fluoro-3-(methylsulfonyl)phenylamino)-5-methylpyrimidin-4-ylamino)-7-methylbenzo[d]oxazol-2(3H)-one]	< 0.5 µM
Cc1cnc(Nc2cccc(C(=O)N3CCCC3)c2)nc1Nc1ccc2oc(=O)[nH]c2c1 [Compound I-246, 5-(5-methyl-2-(3-(pyrrolidine-1-carbonyl)phenylamino)pyrimidin-4-ylamino)benzo[d]oxazol-2(3H)-one]	< 0.5 µM

Compound	IC50
Cc1cnc(Nc2ccc(C(=O)N3CCCC3)cc2)nc1Nc1ccc2oc(=O)[nH]c2c1 [Compound I-247, 5-(5-methyl-2-(4-(pyrrolidine-1-carbonyl)phenylamino)pyrimidin-4-ylamino)benzo[d]oxazol-2(3H)-one]	< 0.5 µM
Cc1cnc(Nc2cccc(S(N)(=O)=O)c2)nc1Nc1cc(F)c2oc(=O)[nH]c2c1 [Compound I-248, 3-(4-(7-fluoro-2-oxo-2,3-dihydrobenzo[d]oxazol-5-ylamino)-5-methylpyrimidin-2-ylamino)benzenesulfonamide]	< 0.5 µM
Cc1cnc(Nc2cccc(S(C)(=O)=O)c2)nc1Nc1cc(F)c2oc(=O)[nH]c2c1 [Compound I-249, 7-fluoro-5-(5-methyl-2-(3-(methylsulfonyl)phenylamino)pyrimidin-4-ylamino)benzo[d]oxazol-2(3H)-one]	< 0.5 µM
Cc1cnc(Nc2ccc(F)c(S(C)(=O)=O)c2)nc1Nc1cc(F)c2oc(=O)[nH]c2c1 [Compound I-250, 7-fluoro-5-(2-(4-fluoro-3-(methylsulfonyl)phenylamino)-5-methylpyrimidin-4-ylamino)benzo[d]oxazol-2(3H)-one]	< 0.5 µM
COc1cc(Nc2ncc(C)c(Nc3cc(F)c4oc(=O)[nH]c4c3)n2)cc(C(F)(F)F)c1 [Compound I-251, 7-fluoro-5-(2-(3-methoxy-5-(trifluoromethyl)phenylamino)-5-methylpyrimidin-4-ylamino)benzo[d]oxazol-2(3H)-one]	< 0.5 µM
COc1cc(Nc2ncc(C)c(Nc3ccc4oc(=O)[nH]c4c3)n2)cc(C(=O)N(C)C)c1 [Compound I-252, 3-methoxy-N,N-dimethyl-5-(5-methyl-4-(2-oxo-2,3-dihydrobenzo[d]oxazol-5-ylamino)pyrimidin-2-ylamino)benzamide]	< 0.5 µM
COc1cc(Nc2ncc(C)c(Nc3ccc4oc(=O)[nH]c4c3)n2)cc(C(=O)N2CCCC2)c1 [Compound I-253, 5-(2-(3-methoxy-5-(pyrrolidine-1-carbonyl)phenylamino)-5-methylpyrimidin-4-ylamino)benzo[d]oxazol-2(3H)-one]	> 10 µM
COc1cc(Nc2ncc(C)c(Nc3ccc4oc(=O)[nH]c4c3)n2)cc(C(=O)N2CCOCC2)c1 [Compound I-254, 5-(2-(3-methoxy-5-(morpholine-4-carbonyl)phenylamino)-5-methylpyrimidin-4-ylamino)benzo[d]oxazol-2(3H)-one]	< 0.5 µM
COc1cc(Nc2ncc(C)c(Nc3ccc4oc(=O)[nH]c4c3)n2)cc(C(=O)N2CCN(C)CC2)c1 [Compound I-255, 5-(2-(3-methoxy-5-(4-methylpiperazine-1-carbonyl)phenylamino)-5-methylpyrimidin-4-ylamino)benzo[d]oxazol-2(3H)-one]	< 0.5 µM
Cc1cnc(Nc2cccc(C(=O)N3CCOCC3)c2)nc1Nc1ccc2oc(=O)[nH]c2c1 [Compound I-256, 5-(5-methyl-2-(3-(morpholine-4-carbonyl)phenylamino)pyrimidin-4-ylamino)benzo[d]oxazol-2(3H)-one]	< 0.5 µM
Cc1cnc(Nc2ccc(C(=O)N3CCOCC3)cc2)nc1Nc1ccc2oc(=O)[nH]c2c1 [Compound I-257, 5-(5-methyl-2-(4-(morpholine-4-carbonyl)phenylamino)pyrimidin-4-ylamino)benzo[d]oxazol-2(3H)-one]	< 0.5 µM
COc1ccc(Nc2ncc(C)c(Nc3ccc4oc(=O)[nH]c4c3)n2)cc1C [Compound I-258, 5-(2-(4-methoxy-3-methylphenylamino)-5-methylpyrimidin-4-ylamino)benzo[d]oxazol-2(3H)-one]	< 0.5 µM
COc1cc(C)cc(Nc2ncc(C)c(Nc3ccc4oc(=O)[nH]c4c3)n2)c1 [Compound I-259, 5-(2-(3-methoxy-5-methylphenylamino)-5-methylpyrimidin-4-ylamino)benzo[d]oxazol-2(3H)-one]	< 0.5 µM
COc1ccc(Nc2ncc(C)c(Nc3ccc4oc(=O)[nH]c4c3)n2)cc1C(=O)N(C)C [Compound I-260, 2-methoxy-N,N-dimethyl-5-(5-methyl-4-(2-oxo-2,3-dihydrobenzo[d]oxazol-5-ylamino)pyrimidin-2-ylamino)benzamide]	< 0.5 µM
COc1ccc(Nc2ncc(C)c(Nc3ccc4oc(=O)[nH]c4c3)n2)cc1C(=O)N1CCCC1 [Compound I-261, 5-(2-(4-methoxy-3-(pyrrolidine-1-carbonyl)phenylamino)-5-methylpyrimidin-4-ylamino)benzo[d]oxazol-2(3H)-one]	< 0.5 µM
COc1ccc(Nc2ncc(C)c(Nc3ccc4oc(=O)[nH]c4c3)n2)cc1C(=O)N1CCOCC1 [Compound I-262, 5-(2-(4-methoxy-3-(morpholine-4-carbonyl)phenylamino)-5-methylpyrimidin-4-ylamino)benzo[d]oxazol-2(3H)-one]	< 0.5 µM
